The nature of data set [1]: DMPC clearance assay (solubilization of a turbid phospholipid solution). It is filed as physicochemical. The text has this: Relative Lipid Binding Affinity, Hydrophobicity, and Amphiphilicity of Synthetic Peptides-In some experiments, the relative lipid binding affinity of unique peptides was quantified using a surface balance technique (Gillotte, K L. et al., J. Biol. Chem., 274:2021-2028 (1999)). For routine analyses, a turbid solution of dimyristoylphosphatidylcholine (DMPC) was used to assess the relative capacity of synthetic peptides to solubilize phospholipid as described (Palgunachari, M. N. et al., Arterioscler. Thromb. Vasc. Biol., 16:328-338 (1996); McLean, L. R. and […]., Biochim. Biophys. Acta, 1167:289-295 (1993)). The DMPC was used at a final concentration of 0.08 mg/ml in 10 mM Tris-saline (pH 7.4). The final weight ratio of peptides relative to DMPC was 1:1. The absorbance (400 nm) of samples was monitored continuously over a period of 30 min at 25° C. Hydrophobicity of helical peptides was calculated using the consensus scale (Eisenberg D., Annu. Rev. Biochem., 53:593-623 (1984)). The hydrophobic moment (kcal/mol) of synthetic peptides, which is a measure of helix amphiphilicity, was calculated as described by Eisenberg et al. (Eisenberg, D. et al., Nature, 299:371-374 (1982)).

Data set [2] has as its target T1, ABCA1 (Mus musculus, UniProt P41233). Nature of the data set: ABCA1 stabilization: immunoblot of ABCA1 protein in J774 macrophage membranes after cAMP withdrawal. Particulars: 20 μg/ml peptide, 6 h without cAMP, J774 macrophages. It is filed as cell-based. Further details: J774 macrophages were used to assess relative ABCA1 protein levels in the presence and absence of synthetic peptides; endogenous in cells; host or cells: J774 macrophages treated with a cAMP analog (CPT-cAMP or 8-bromo-cAMP). As for the experimental part: J774 macrophages were incubated (18 h) with 0.5 mM 8-bromo-cAMP in medium containing 0.1% bovine serum albumin to up-regulate ABCA1 protein expression. Washed cells were subsequently exposed for 6 h to bovine serum albumin medium with (+) or without (−) 8-bromo-cAMP and the indicated synthetic peptides (20 μg/ml). None refers to no peptides. The cellular membrane content of ABCA1 protein was measured by immunoblot analysis.
ABCA1 Stabilization—J774 macrophages were used to assess relative ABCA1 protein levels in the presence and absence of synthetic peptides. Cells were grown in 10% fetal bovine serum, extensively rinsed, and incubated (18 h) with Dulbecco's modified Eagle's medium containing 0.1% bovine serum albumin plus the cAMP analog 8-bromo-cAMP. Cells were next exposed to synthetic peptides or serum-free medium in the absence of the cAMP stimulus to evaluate whether ABCA1 protein was stabilized or degraded. Relative levels of ABCA1 protein were assessed by immunoblot analysis of cell membranes (Oram, J. F. et al., J. Biol. Chem., 278:52379-52385 (2003)). ABCA1 was visualized using an enhanced chemiluminescence detection assay.
To assess ABCA1 stabilization, J774 macrophages were treated with a cAMP analog to up-regulate ABCA1 protein expression and then incubated for 6 h without cAMP. In the absence of inducer, ABCA1 protein is rapidly degraded in these cells (FIG. 9). […] Thus, it appears that the helical combinations that stimulate cholesterol efflux also stabilize the ABCA1 transporter.
In general terms: A western blot detects proteins with antibodies after separation by electrophoresis.

Data set [3] addresses T1, ABCA1. The description is as above. The data set is classed as cell-based. Further details: J774 macrophages were used to assess relative ABCA1 protein levels in the presence and absence of synthetic peptides; endogenous in cells; host or cells: J774 macrophages treated with a cAMP analog (CPT-cAMP or 8-bromo-cAMP). Particulars: concentration dependence studies, J774 macrophages.

Data set [4] can be described thus: Relative lipid binding affinity by surface balance technique (monolayer exclusion pressure). It is filed as physicochemical. Particulars: for Monolayer exclusion pressure: surface balance technique. The text has this: Relative Lipid Binding Affinity, Hydrophobicity, and Amphiphilicity of Synthetic Peptides—In some experiments, the relative lipid binding affinity of unique peptides was quantified using a surface balance technique (Gillotte, K L. et al., J. Biol. Chem., 274:2021-2028 (1999)). For routine analyses, a turbid solution of dimyristoylphosphatidylcholine (DMPC) was used to assess the relative capacity of synthetic peptides to solubilize phospholipid as described (Palgunachari, M. N. et al., Arterioscler. Thromb. Vasc. Biol., 16:328-338 (1996); McLean, L. R. and Hagaman, K. A., Biochim. Biophys. Acta, 1167:289-295 (1993)). The DMPC was used at a final concentration of 0.08 mg/ml in 10 mM Tris-saline (pH 7.4). The final weight ratio of peptides relative to DMPC was 1:1. The absorbance (400 nm) of samples was monitored continuously over a period of 30 min at 25° C. Hydrophobicity of helical peptides was calculated using the consensus scale (Eisenberg D., Annu. Rev. Biochem., 53:593-623 (1984)). The hydrophobic moment (kcal/mol) of synthetic peptides, which is a measure of helix amphiphilicity, was calculated as described by Eisenberg et al. (Eisenberg, D. et al., Nature, 299:371-374 (1982)).

The target in data set [5] is T1, ABCA1. Nature of the data set: Cellular cholesterol efflux from [3H]cholesterol-labeled J774 macrophages with and without cAMP analog. The data set is classed as cell-based. Further details: endogenous in cells; host or cells: J774 macrophages treated with a cAMP analog (CPT-cAMP or 8-bromo-cAMP). Particulars: for concentration at which cholesterol efflux reached maximal levels: cAMP-treated J774 cells; for ABCA1-dependent cholesterol efflux (result in words): lipid-free acceptor, J774 macrophages with vs without cAMP analog. The text has this:
Suitable cholesterol efflux assays are described in, e.g., Bielicki, J. K and Oda, M. N., Biochemistry, 41:2089-2096 (2002); Jia, Z. et al., Biochem. Biophys. Res. Common., 297:206-213 (2002). In some embodiments, a polypeptide known to mediate cholesterol efflux (e.g., helix 9/10 of Apo A-I) is used to screen for additional mediators of cholesterol efflux in a cell based assay. For example, cell lines in which cholesterol efflux can be enhanced using a cAMP analog that up-regulates ABCA1 protein expression (e.g., J774 macrophages) can conveniently be used to assess the ability of an Apo A-I, Apo A-II, Apo A-IV, Apo E, Apo C-I, Apo C-II, Apo C-III, or Serum Amyloid A peptide to mediate cholesterol efflux. The cells are incubated with labeled cholesterol (e.g., [^3H]cholesterol) under conditions appropriate for cholesterol uptake by the cells. cAMP or cAMP analogs (e.g., CPT-cAMP) is incubated with the cells for a suitable time before the initiation of cellular cholesterol efflux, i.e., prior to contacting the cells with helix 9/10 of Apo A-I or the test compound. Measurement of labeled cholesterol appearing in the medium is used to determine the cholesterol efflux mediating activity of the test compound.
Cellular Cholesterol Efflux Protocol—J774 macrophages were used to assess the cholesterol efflux properties of synthetic amphipathic α-helical peptides (Bielicki, J. K and Oda, M. N., Biochemistry, 41:2089-2096 (2002); Jia, Z. et al., Biochem. Biophys. Res. Common., 297:206-213 (2002)). This cell line was chosen because cholesterol efflux can be enhanced using a cAMP analog that up-regulates ABCA1 protein expression. The cells were seeded onto 24-well culture plates and labeled for 48 h with [^3H]cholesterol in RPMI 1640 supplemented with 1% fetal bovine serum. The cAMP analog CPT-cAMP was added (0.3 mM, final concentration) to the cells at least 12 h before the initiation of cellular cholesterol efflux. Synthetic peptides in lipid-free form were added to cells in serum-free RPMI. The lipid-free form of full-length recombinant apoA-I was used as a positive control to define apparent ABCA1-dependent cholesterol efflux in the presence and absence of cAMP stimulation. Efflux results were expressed as a percentage of the initial cellular [^3H] appearing in the medium as a function of time subtracting the background efflux obtained using serum-free medium alone.

Where a SMILES comes first, the peptide text is derived from it.

T1 sequence (P41233 whole entry): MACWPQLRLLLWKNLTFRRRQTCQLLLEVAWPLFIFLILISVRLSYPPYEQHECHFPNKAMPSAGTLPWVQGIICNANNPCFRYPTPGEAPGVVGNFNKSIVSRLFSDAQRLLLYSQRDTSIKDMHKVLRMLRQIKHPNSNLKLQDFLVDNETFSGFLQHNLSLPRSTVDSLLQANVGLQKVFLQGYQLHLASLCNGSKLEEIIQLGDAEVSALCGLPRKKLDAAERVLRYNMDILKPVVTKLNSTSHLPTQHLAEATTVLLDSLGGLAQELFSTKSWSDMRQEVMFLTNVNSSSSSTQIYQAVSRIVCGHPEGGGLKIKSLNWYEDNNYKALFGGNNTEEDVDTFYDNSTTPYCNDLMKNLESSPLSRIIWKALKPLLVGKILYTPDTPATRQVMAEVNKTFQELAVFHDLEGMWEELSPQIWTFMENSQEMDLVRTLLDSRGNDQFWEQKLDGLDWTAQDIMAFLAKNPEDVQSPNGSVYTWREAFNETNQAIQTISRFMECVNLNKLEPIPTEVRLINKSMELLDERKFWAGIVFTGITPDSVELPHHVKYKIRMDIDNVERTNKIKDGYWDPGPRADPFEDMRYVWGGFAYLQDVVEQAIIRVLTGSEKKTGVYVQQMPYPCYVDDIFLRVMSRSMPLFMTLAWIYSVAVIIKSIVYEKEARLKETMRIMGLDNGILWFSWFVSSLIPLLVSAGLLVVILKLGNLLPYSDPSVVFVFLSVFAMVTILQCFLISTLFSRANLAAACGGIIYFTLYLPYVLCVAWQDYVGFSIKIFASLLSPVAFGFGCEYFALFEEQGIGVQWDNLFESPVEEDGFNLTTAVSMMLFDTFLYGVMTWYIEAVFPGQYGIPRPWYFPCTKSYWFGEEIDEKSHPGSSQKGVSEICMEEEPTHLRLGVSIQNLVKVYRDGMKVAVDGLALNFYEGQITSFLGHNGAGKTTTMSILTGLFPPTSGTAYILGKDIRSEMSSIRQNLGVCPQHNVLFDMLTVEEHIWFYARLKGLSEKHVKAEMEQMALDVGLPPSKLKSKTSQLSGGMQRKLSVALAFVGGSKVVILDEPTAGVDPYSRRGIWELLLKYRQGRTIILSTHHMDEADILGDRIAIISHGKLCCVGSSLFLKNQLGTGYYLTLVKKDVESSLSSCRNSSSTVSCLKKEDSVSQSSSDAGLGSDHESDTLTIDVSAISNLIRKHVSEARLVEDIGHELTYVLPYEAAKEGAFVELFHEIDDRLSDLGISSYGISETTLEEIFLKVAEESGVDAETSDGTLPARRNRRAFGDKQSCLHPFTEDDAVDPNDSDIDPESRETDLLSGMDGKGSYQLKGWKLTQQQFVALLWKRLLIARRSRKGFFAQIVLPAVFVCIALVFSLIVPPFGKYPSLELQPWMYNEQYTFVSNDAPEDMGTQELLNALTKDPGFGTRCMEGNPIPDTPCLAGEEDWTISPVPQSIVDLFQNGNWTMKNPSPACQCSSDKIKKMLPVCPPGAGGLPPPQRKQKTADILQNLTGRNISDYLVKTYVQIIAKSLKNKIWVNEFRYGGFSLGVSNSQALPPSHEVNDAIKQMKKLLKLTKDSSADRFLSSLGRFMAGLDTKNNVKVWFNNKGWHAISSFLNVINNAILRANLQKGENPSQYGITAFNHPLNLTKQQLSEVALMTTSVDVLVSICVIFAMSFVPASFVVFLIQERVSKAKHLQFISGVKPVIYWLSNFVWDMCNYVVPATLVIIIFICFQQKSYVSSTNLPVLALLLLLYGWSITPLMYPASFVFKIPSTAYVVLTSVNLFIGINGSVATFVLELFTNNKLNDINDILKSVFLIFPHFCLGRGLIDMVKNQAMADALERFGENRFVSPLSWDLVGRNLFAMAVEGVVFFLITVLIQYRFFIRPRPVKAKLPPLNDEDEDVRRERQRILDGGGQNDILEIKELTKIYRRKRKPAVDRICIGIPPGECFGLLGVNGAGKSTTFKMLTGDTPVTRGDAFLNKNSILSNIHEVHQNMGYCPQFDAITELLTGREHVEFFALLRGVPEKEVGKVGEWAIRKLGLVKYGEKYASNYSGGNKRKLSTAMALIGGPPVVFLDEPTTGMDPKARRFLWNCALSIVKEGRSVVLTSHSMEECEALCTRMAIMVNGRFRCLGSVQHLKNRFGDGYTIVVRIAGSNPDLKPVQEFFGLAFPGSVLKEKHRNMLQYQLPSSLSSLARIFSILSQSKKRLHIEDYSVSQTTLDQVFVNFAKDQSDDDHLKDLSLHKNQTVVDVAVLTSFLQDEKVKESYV

In the case of `CC(=O)N[C@@H](CC(C)C)C(=O)N[C@@H](CCCCN)C(=O)N[C@@H](CC(C)C)C(=O)N[C@@H](CC(C)C)C(=O)N[C@@H](CC(=O)O)C(=O)N[C@@H](CC(N)=O)C(=O)N[C@@H](Cc1c[nH]c2ccccc12)C(=O)N[C@@H](CC(=O)O)C(=O)N[C@@H](CO)C(=O)N[C@H](C(=O)N[C@H](C(=O)N[C@@H](CO)C(=O)N[C@H](C(=O)N[C@@H](Cc1ccccc1)C(=O)N[C@@H](CO)C(=O)N[C@@H](CCCCN)C(=O)N[C@@H](CC(C)C)C(=O)N[C@@H](CCCNC(=N)N)C(=O)N[C@@H](CCC(=O)O)C(=O)N[C@@H](CCC(N)=O)C(=O)N[C@@H](CC(C)C)C(=O)NCC(=O)N1CCC[C@H]1C(=O)N[C@@H](C)C(=O)N[C@@H](CC(C)C)C(=O)N[C@@H](CCC(=O)O)C(=O)N[C@@H](CC(=O)O)C(=O)N[C@@H](CC(C)C)C(=O)N[C@@H](CCCNC(=N)N)C(=O)N[C@@H](CCC(N)=O)C(=O)NCC(=O)N[C@@H](CC(C)C)C(=O)N[C@@H](CC(C)C)C(N)=O)[C@@H](C)O)[C@@H](C)O)C(C)C` [Helical peptide 1/9] (Ac-LKLLDNWDSVTSTFSKLREQLGPALEDLRQGLL-NH2), in data set [1], the DMPC clearance entry is on record as “+”. Besides, the “ABCA1 stabilization (result in words)” value at ABCA1 [2] is “stabilized cellular ABCA1 protein to levels comparable with those observed when cells were exposed continuously to cAMP”. Moreover, on ABCA1 [3], the “lowest concentration that prevented ABCA1 degradation” value stood at 10 µg/mL. For the same compound, in data set [4], the “lipid binding affinity (surface balance technique), result in words” value was “identical” and the Monolayer exclusion pressure is 31 dynes/cm. At ABCA1 [5], the “concentration at which cholesterol efflux reached maximal levels” value came to 50 µg/mL; the “ABCA1-dependent cholesterol efflux (result in words)” value is “stimulated cholesterol efflux in the absence and presence of CAMP stimulation similar to full-length apoA-I”.
Turning to `CC(=O)N1CCC[C@H]1C(=O)N[C@@H](C)C(=O)N[C@@H](CC(C)C)C(=O)N[C@@H](CCC(=O)O)C(=O)N[C@@H](CC(=O)O)C(=O)N[C@@H](CC(C)C)C(=O)N[C@@H](CCCNC(=N)N)C(=O)N[C@@H](CCC(N)=O)C(=O)NCC(=O)N[C@@H](CC(C)C)C(=O)N[C@@H](CC(C)C)C(=O)N1CCC[C@H]1C(=O)N[C@H](C(=O)N[C@@H](CC(C)C)C(=O)N[C@@H](CCC(=O)O)C(=O)N[C@@H](CO)C(=O)N[C@@H](Cc1ccccc1)C(=O)N[C@@H](CCCCN)C(=O)N[C@H](C(=O)N[C@@H](CO)C(=O)N[C@@H](Cc1ccccc1)C(=O)N[C@@H](CC(C)C)C(=O)N[C@@H](CO)C(=O)N[C@@H](C)C(=O)N[C@@H](CC(C)C)C(=O)N[C@@H](CCC(=O)O)C(=O)N[C@@H](CCC(=O)O)C(=O)N[C@@H](Cc1ccc(O)cc1)C(=O)N[C@H](C(=O)N[C@@H](CCCCN)C(=O)N[C@@H](CCCCN)C(=O)N[C@@H](CC(C)C)C(=O)N[C@@H](CC(N)=O)C(N)=O)[C@@H](C)O)C(C)C)C(C)C` [Helical peptide 9/10] (Ac-PALEDLRQGLLPVLESFKVSFLSALEEYTKKLN-NH2), the DMPC clearance result in data set [1] is given as “+”. The “ABCA1 stabilization (result in words)” value on ABCA1 [2] is listed as “stabilized cellular ABCA1 protein to levels comparable with those observed when cells were exposed continuously to cAMP”. Moreover, the “lowest concentration that prevented ABCA1 degradation” value at ABCA1 [3] amounted to 10 µg/mL. In data set [4], the Monolayer exclusion pressure is 36 dynes/cm. Moreover, on ABCA1 [5] (FIGS. 2B versus 3C), the “potency in mediating ABCA1-dependent cholesterol efflux relative to the 1/9 chimera” value came to 2 fold. Also, the “concentration giving maximal ABCA1 stabilization and cholesterol efflux” value on ABCA1 [5] (both ABCA1 stabilization and cholesterol efflux) is 10 to 25 µg/mL. For the same compound, on ABCA1 [5], the “concentration at which cholesterol efflux reached maximal levels” value was determined as 25 µg/mL and the “ABCA1-dependent cholesterol efflux (result in words)” value is “stimulated cholesterol efflux in an ABCA1-dependent manner”.

For the origin of these results see patent US7691965B2, “Helical synthetic peptides that stimulate cellular cholesterol efflux” (The Regents of the University of California, priority 2002, dated 2010).
